Earlier results, collected in patent publication US20160074320A1, “PHARMACEUTICAL COMPOSTIONS COMPRISING KISSPEPTIN OR DERIVATIVES THEREOF” (OURO FINO SAÚDE ANIMAL LTDA, priority 2013, published 2016).
Ends that are not written are not given here.

Columns and labels:
sheep [1] = settings: Kp-10 applied 30 h after removal of intra-vaginal progesterone device (CIDR)
sheep [2] = settings: sheep in anestrus, low and sustained (30 to 48 h) doses IV

Substance: Kp-10: 10 amino acid fragment cleaved from kisspeptin, the 145 amino acid protein encoded by Kiss-1 gene (YNWNSFGLRF; ends and bridges not checked; UniProt Q15726 112-121, looked up, fragment)
- peak of LH, time after removal of CIDR (sheep [1]): ~32 h
- hormone release (prepubertal heifers; IV administration): induces the release of LH and growth hormone (GH)
- LH pulses (Redmond and collaborators) (prepubertal heifers; IV injections): increase of frequency and amplitude of the pulses of LH
- ovulation, share of animals (sheep [2]): more than 80%
